Results reported in paper PMC6917776, “Discovery of a chemical probe for PRDM9” (Nature Communications, 2019).
Where two headings read alike, the source gives them in different places.

Tests used:
Test in all cases: Methyltransferase selectivity assay (SPA)
Type in all cases: biochemical
GLP = target: T1, GLP (Homo sapiens, UniProt Q9H9B1); details: EHMT1, Exp1, Exp2
T1 construct: purchased Structural Genomics Consortium (SGC Toronto) in-house methyltransferase panel
T1 sequence (Q9H9B1 1-1298): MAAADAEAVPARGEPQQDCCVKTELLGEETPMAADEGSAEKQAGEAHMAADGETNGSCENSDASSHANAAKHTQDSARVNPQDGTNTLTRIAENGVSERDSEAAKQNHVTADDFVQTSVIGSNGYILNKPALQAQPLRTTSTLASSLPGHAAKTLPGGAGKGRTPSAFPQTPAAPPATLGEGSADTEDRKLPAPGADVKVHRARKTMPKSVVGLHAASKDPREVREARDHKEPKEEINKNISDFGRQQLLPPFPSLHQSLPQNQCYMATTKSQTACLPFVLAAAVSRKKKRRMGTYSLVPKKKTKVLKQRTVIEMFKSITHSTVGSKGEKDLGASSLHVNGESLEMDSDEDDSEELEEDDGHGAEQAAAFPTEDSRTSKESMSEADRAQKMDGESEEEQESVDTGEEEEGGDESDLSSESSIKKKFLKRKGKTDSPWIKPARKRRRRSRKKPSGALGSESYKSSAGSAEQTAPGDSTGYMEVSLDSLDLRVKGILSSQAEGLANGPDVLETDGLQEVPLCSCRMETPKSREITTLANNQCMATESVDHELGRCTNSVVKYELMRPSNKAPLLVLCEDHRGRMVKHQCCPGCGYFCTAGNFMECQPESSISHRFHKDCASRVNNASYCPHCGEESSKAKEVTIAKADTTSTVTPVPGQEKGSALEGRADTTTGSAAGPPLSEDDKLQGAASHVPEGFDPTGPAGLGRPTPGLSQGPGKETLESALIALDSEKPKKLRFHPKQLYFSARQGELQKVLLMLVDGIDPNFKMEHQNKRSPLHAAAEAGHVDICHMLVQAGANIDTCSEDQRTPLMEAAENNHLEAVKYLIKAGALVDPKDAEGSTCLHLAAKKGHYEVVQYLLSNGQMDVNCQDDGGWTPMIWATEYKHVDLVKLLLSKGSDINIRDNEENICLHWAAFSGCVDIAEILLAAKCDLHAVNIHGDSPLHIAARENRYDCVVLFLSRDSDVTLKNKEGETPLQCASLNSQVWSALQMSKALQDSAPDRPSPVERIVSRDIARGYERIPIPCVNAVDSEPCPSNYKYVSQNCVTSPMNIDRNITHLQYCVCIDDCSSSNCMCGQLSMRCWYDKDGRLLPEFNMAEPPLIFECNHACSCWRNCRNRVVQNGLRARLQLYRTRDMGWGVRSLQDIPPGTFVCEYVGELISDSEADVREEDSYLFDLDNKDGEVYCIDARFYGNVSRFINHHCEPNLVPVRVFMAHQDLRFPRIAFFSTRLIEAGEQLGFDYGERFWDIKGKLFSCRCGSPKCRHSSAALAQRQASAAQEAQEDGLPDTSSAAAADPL
Description: (§1) Selectivity against methyltransferases were determined as described previously. Details of the assays are described in the supplementary methods.
(§2) Methyltransferase selectivity assay1
(§3) The effect of chemical probes and negative controls on the methyltransferase activities of protein, DNA and RNA methyltransferases was tested by radiometric assays using 3H-SAM. For proteins such as MLL1 trimeric, MLL3 pentameric, EZH1 (PRC2) pentameric, and EZH2 (PRC2) trimeric complexes, as well as G9a, GLP, SUV39H1, SUV39H2, SUV420H1, SUV420H2, SETD2, SETD8, SETDB1, SETD7, PRMT1, PRMT3, PRMT4, PRMT5/ MEP50 complex, PRMT6, PRMT7, PRMT8, PRMT9, PRDM9, SMYD2, SMYD3, DNMT1, and BCDIN3D the incorporation of a tritium-labeled methyl group into biotinylated substrate was monitored using scintillation proximity assay (SPA). Briefly, a 10 µL reaction containing 3H-SAM and substrate at concentrations close to the apparent Km values for each enzyme (balanced conditions) was prepared. The reactions were quenched with 10 µL of 7.5 M guanidine hydrochloride; 180 µL of 20 mM Tris buffer (pH 8.0) were added, and the mixture was transferred to a 96-well FlashPlate and incubated for 1 h. The counts per minute (CPM) was measured on a TopCount plate reader. The CPM in the absence of compound or enzyme was defined as 100% activity and background (0%), respectively, for each dataset. […]

MLL3 pentameric complex = target: T2, MLL3 pentameric complex (Homo sapiens, UniProt Q8NEZ4)
T2 construct: purchased Structural Genomics Consortium (SGC Toronto) in-house methyltransferase panel
Description: as §1, §2, §3

SMYD3 = target: T3, SMYD3 (Homo sapiens, UniProt Q9H7B4)
T3 construct: purchased Structural Genomics Consortium (SGC Toronto) in-house methyltransferase panel
T3 sequence (Q9H7B4 1-428): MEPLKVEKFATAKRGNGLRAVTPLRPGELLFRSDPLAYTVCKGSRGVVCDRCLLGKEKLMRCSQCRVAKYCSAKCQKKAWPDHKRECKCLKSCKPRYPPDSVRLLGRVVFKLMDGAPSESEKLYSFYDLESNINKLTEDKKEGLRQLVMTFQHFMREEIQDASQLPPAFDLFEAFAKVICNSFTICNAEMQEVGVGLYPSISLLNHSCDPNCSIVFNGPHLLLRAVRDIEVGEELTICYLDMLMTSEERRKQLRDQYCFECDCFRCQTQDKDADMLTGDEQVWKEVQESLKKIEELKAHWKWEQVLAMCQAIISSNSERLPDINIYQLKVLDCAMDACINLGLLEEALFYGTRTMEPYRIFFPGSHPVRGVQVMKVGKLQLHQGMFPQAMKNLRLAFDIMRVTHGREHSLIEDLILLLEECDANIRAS
Description: as §1, §2, §3

SUV39H1 = target: T4, SUV39H1 (Homo sapiens, UniProt O43463)
T4 construct: purchased Structural Genomics Consortium (SGC Toronto) in-house methyltransferase panel
T4 sequence (O43463 1-412): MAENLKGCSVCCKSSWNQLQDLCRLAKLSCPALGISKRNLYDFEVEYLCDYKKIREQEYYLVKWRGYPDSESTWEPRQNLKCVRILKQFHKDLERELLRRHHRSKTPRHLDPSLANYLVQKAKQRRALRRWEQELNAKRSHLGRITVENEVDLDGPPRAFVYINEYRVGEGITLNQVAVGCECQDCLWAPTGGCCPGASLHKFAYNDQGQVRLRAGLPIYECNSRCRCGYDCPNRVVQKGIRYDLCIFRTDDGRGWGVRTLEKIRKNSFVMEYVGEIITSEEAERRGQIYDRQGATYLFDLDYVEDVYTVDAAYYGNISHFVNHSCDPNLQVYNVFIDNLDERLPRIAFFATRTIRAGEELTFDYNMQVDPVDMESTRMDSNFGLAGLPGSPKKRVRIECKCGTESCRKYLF
Description: as §1, §2, §3

[1] = 10µM compound, Exp1, Exp2, 10 µM
[2] = 1µM compound, Exp1, Exp2, read-out: Activity %
[3] = 10µM compound, Exp1, Exp2, read-out: Activity %

## COc1cc(OC)cc(-c2noc(N3CCN(C)C4(CCN(c5ccccc5)CC4)C3)n2)c1 [MRK-740 -NC]
GLP; 1µM compound
  activity at 1 µM: 100%
GLP; 10µM compound
  activity at 10 µM: 95%
GLP; 10µM compound, 10 µM
  Activity %: 98%
MLL3 pentameric complex; 1µM compound, Exp1, Exp2
  activity at 1 µM: 108%
MLL3 pentameric complex; 1µM compound, Exp1, Exp2, 1 µM
  Activity %: 105%
MLL3 pentameric complex; 10µM compound, Exp1, Exp2
  activity at 10 µM: 107%
MLL3 pentameric complex; [1]
  Activity %: 95%
SMYD3; 1µM compound, Exp1, Exp2
  activity at 1 µM: 100%
SMYD3; 1µM compound, Exp1, Exp2, 1 µM
  Activity %: 102%
SMYD3; 10µM compound, Exp1, Exp2
  activity at 10 µM: 96%
SMYD3; [1]
  Activity %: 89%
SUV39H1; 1µM compound, Exp1, Exp2
  activity at 1 µM: 100%
SUV39H1; 1µM compound, Exp1, Exp2, 1 µM
  Activity %: 104%
SUV39H1; 10µM compound, Exp1, Exp2
  activity at 10 µM: 101%

## COc1cc(OC)cc(-c2noc(N3CCN(C)C4(CCN(c5ccnc(C)c5)CC4)C3)n2)c1 [MRK-740]
GLP; 1µM compound, 1 µM
  Activity %: 100%
GLP; 1µM compound, read-out: Activity %
  activity at 1 µM: 93%
GLP; 10µM compound, 10 µM
  Activity %: 84%
GLP; 10µM compound, read-out: Activity %
  activity at 10 µM: 94%
MLL3 pentameric complex; 1µM compound, Exp1, Exp2, 1 µM
  Activity %: 95%
MLL3 pentameric complex; [2]
  activity at 1 µM: 89%
MLL3 pentameric complex; [1]
  Activity %: 86%
MLL3 pentameric complex; [3]
  activity at 10 µM: 94%
SMYD3; 1µM compound, Exp1, Exp2, 1 µM
  Activity %: 91%
SMYD3; [2]
  activity at 1 µM: 95%
SMYD3; [1]
  Activity %: 101%
SMYD3; [3]
  activity at 10 µM: 96%
SUV39H1; 1µM compound, Exp1, Exp2, 1 µM
  Activity %: 85%
SUV39H1; [2]
  activity at 1 µM: 84%
SUV39H1; [1]
  Activity %: 80%
SUV39H1; [3]
  activity at 10 µM: 84%
